Structures are written as SMILES. The source made the active and inactive calls. No cut-off for these calls is given here. Where only a bound is given, the exact number is not on record here.

Consider two compounds from ChEMBL document CHEMBL1138469, “Structural basis for inhibitor specificity in human poly(ADP-ribose) polymerase-3” (J Med Chem, 2009).

Test [1] addresses T1, Protein mono-ADP-ribosyltransferase PARP3 (Homo sapiens, UniProt Q9Y6F1).
T1 sequence (Q9Y6F1 whole entry): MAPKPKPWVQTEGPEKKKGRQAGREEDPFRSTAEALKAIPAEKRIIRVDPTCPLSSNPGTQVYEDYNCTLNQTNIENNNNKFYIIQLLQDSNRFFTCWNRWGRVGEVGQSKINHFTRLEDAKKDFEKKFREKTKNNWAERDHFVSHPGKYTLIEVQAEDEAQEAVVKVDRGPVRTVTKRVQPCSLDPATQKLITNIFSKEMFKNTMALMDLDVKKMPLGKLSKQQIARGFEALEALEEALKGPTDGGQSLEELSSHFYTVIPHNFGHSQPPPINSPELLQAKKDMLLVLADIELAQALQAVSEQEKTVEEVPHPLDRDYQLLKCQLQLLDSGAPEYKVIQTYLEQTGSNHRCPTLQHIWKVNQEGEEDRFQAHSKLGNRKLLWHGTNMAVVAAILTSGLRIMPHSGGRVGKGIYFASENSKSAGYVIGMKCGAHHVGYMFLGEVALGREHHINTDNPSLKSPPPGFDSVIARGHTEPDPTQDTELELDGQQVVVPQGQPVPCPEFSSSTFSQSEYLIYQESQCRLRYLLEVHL
The experiment in a line: Binding affinity to human PARP3 PARP domain by isothermal titration […]. In general terms: In ITC the heat of successive injections is recorded.

Test [2] concerns the target T2, Protein mono-ADP-ribosyltransferase PARP3 (Homo sapiens) (UniProt Q9Y6F1).
T2 sequence (whole entry): T1 sequence (Q9Y6F1 whole entry)
The experiment in a line: Inhibition of human PARP3 auto-ADP ribosylation by Western blotting. On the technique in general: A western blot detects proteins with antibodies after separation by electrophoresis.

Test [3] deals with T3, Poly [ADP-ribose] polymerase 1 (Homo sapiens, UniProt P09874). The experiment in a line: Inhibition of human PARP1.
T3 sequence (P09874 whole entry): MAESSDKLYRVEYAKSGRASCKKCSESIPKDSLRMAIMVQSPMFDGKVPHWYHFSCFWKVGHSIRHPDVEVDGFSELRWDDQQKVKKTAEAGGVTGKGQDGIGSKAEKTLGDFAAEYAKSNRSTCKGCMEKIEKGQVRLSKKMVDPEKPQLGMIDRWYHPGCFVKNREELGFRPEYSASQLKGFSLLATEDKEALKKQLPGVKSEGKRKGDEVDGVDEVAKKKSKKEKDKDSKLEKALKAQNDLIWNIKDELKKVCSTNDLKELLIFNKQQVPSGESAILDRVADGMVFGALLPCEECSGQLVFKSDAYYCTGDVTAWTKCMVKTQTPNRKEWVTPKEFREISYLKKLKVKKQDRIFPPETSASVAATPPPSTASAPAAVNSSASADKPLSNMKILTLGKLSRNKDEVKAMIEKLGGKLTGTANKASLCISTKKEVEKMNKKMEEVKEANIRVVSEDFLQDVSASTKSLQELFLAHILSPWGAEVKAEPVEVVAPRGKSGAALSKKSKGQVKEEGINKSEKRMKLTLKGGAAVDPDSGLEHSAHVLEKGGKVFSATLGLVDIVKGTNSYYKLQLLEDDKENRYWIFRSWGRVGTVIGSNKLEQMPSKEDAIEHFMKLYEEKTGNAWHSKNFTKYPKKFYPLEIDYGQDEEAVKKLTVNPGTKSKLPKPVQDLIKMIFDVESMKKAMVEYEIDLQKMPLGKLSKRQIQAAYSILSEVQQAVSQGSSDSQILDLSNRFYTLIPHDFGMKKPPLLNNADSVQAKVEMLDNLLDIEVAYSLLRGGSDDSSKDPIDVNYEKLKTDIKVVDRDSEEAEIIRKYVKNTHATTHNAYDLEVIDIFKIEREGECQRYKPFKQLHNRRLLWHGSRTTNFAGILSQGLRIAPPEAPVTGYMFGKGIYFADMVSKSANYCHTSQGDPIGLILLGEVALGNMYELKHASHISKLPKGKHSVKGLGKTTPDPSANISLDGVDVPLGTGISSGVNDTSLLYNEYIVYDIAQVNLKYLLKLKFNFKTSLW
Test [4] concerns the target T3, Poly [ADP-ribose] polymerase 1.
Description: Binding affinity to human PARP1 by isothermal titration colorimetry

Usually Kd stands for the constant that tells how readily two partners part at equilibrium. Low readings indicate a tighter complex, high ones a looser complex. Compound `Nc1cccc(C(=O)O)c1` [3-AMINOBENZOIC ACID] displayed a Kd in test [1] of more than 2000 nM.
One may read the IC50 as the concentration that inhibits the measured activity by half. In the case of `O=C(c1cc(Cc2n[nH]c(=O)c3ccccc23)ccc1F)N1CCCNCC1`, in test [2], the result was Active. In test [3], this compound showed an IC50 of 3.4 nM. Besides, the Kd in test [4] turned out to be 19 nM.
